Experimental data published in PubChem BioAssay (NCI).
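Where inhibition never reached the appropriate level, the endpoint shown equals the highest concentration tested. Otherwise, values were interpolated linearly from a five-concentration, 48-hour dose response in 96-well plates. GI50 marks 50% less growth. TGI marks complete inhibition of growth.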

What was measured:
Assay in all cases: NCI-60 cell line screen, 48 h
[1] = test system: 786-0 renal
[2] = test system: A549 NSCLC
[3] = test system: CCRF-CEM leukemia
[4] = test system: HCC-2998 colon
[5] = test system: HCT-116 colon
[6] = test system: HCT-15 colon
[7] = test system: HL-60(TB) leukemia
[8] = test system: HOP-62 NSCLC
[9] = test system: HS 578T breast
[10] = test system: HT29 colon
[11] = test system: K-562 leukemia
[12] = test system: KM12 colon
[13] = test system: MALME-3M melanoma
[14] = test system: MCF7 breast
[15] = test system: MOLT-4 leukemia
[16] = test system: NCI-H226 lung
[17] = test system: NCI-H23 lung
[18] = test system: NCI-H460 lung
[19] = test system: NCI-H522 lung
[20] = test system: OVCAR-3 ovarian
[21] = test system: OVCAR-5 ovarian
[22] = test system: OVCAR-8 ovarian
[23] = test system: PC-3 prostate
[24] = test system: RPMI-8226 leukemia
[25] = test system: SF-268 CNS
[26] = test system: SF-295 CNS
[27] = test system: SF-539 CNS
[28] = test system: SK-MEL-2 melanoma
[29] = test system: SK-MEL-28 melanoma
[30] = test system: SK-MEL-5 melanoma
[31] = test system: SN12C renal
[32] = test system: SNB-75 CNS
[33] = test system: SR leukemia
[34] = test system: SW-620 colon
[35] = test system: TK-10 renal
[36] = test system: U251 CNS
[37] = test system: UACC-257 melanoma
[38] = test system: ACHN renal
[39] = test system: BT-549 breast
[40] = test system: CAKI-1 renal
[41] = test system: COLO 205 colon
[42] = test system: DU-145 prostate
[43] = test system: EKVX NSCLC
[44] = test system: HOP-92 NSCLC
[45] = test system: IGROV1 ovarian
[46] = test system: LOX IMVI melanoma
[47] = test system: M14 melanoma
[48] = test system: MDA-MB-231 breast
[49] = test system: MDA-MB-435
[50] = test system: NCI/ADR-RES ovarian
[51] = test system: OVCAR-4 ovarian
[52] = test system: RXF 393 renal
[53] = test system: SK-OV-3 ovarian
[54] = test system: SNB-19 CNS
[55] = test system: T-47D breast
[56] = test system: UACC-62 melanoma
[57] = test system: UO-31 renal

Cc1ncc([N+](=O)[O-])n1CCNCCCn1ccnc1[N+](=O)[O-]
TGI [1]: > 100 µM
TGI [2]: > 100 µM
TGI [3]: > 100 µM
TGI [4]: > 100 µM
TGI [5]: > 100 µM
TGI [6]: > 100 µM
TGI [7]: > 100 µM
TGI [8]: > 100 µM
TGI [9]: > 100 µM
TGI [10]: > 100 µM
TGI [11]: > 100 µM
TGI [12]: > 100 µM
TGI [13]: > 100 µM
TGI [14]: > 100 µM
TGI [15]: > 100 µM
TGI [16]: > 100 µM
TGI [17]: > 100 µM
TGI [18]: > 100 µM
TGI [19]: > 100 µM
TGI [20]: > 100 µM
TGI [21]: > 100 µM
TGI [22]: > 100 µM
TGI [23]: > 100 µM
TGI [24]: > 100 µM
TGI [25]: > 100 µM
TGI [26]: > 100 µM
TGI [27]: > 100 µM
TGI [28]: > 100 µM
TGI [29]: > 100 µM
TGI [30]: > 100 µM
TGI [31]: > 100 µM
TGI [32]: > 100 µM
TGI [33]: > 100 µM
TGI [34]: > 100 µM
TGI [35]: > 100 µM
TGI [36]: > 100 µM
TGI [37]: > 100 µM

CCCNC(=O)c1ccc(Cl)cc1Cl
GI50 [1]: > 100 µM
TGI [1]: > 100 µM
GI50 [2]: > 100 µM
TGI [2]: > 100 µM
GI50 [38]: > 100 µM
TGI [38]: > 100 µM
GI50 [39]: > 100 µM
TGI [39]: > 100 µM
GI50 [40]: > 100 µM
TGI [40]: > 100 µM
GI50 [41]: > 100 µM
TGI [41]: > 100 µM
GI50 [42]: > 100 µM
TGI [42]: > 100 µM
GI50 [43]: > 100 µM
TGI [43]: > 100 µM
GI50 [5]: > 100 µM
TGI [5]: > 100 µM
GI50 [6]: > 100 µM
TGI [6]: > 100 µM
GI50 [7]: > 100 µM
TGI [7]: > 100 µM
GI50 [8]: > 100 µM
TGI [8]: > 100 µM
GI50 [44]: > 100 µM
TGI [44]: > 100 µM
GI50 [10]: > 100 µM
TGI [10]: > 100 µM
GI50 [45]: > 100 µM
TGI [45]: > 100 µM
GI50 [11]: > 100 µM
TGI [11]: > 100 µM
GI50 [12]: > 100 µM
TGI [12]: > 100 µM
GI50 [46]: > 100 µM
TGI [46]: > 100 µM
GI50 [47]: > 100 µM
TGI [47]: > 100 µM
GI50 [13]: > 100 µM
TGI [13]: > 100 µM
GI50 [14]: > 100 µM
TGI [14]: > 100 µM
GI50 [48]: > 100 µM
TGI [48]: > 100 µM
GI50 [49]: > 100 µM
TGI [49]: > 100 µM
GI50 [15]: > 100 µM
TGI [15]: > 100 µM
GI50 [16]: > 100 µM
TGI [16]: > 100 µM
GI50 [17]: > 100 µM
TGI [17]: > 100 µM
GI50 [18]: > 100 µM
TGI [18]: > 100 µM
GI50 [50]: > 100 µM
TGI [50]: > 100 µM
GI50 [20]: > 100 µM
TGI [20]: > 100 µM
GI50 [51]: > 100 µM
TGI [51]: > 100 µM
GI50 [21]: > 100 µM
TGI [21]: > 100 µM
GI50 [22]: > 100 µM
TGI [22]: > 100 µM
GI50 [23]: > 100 µM
TGI [23]: > 100 µM
GI50 [52]: > 100 µM
TGI [52]: > 100 µM
GI50 [25]: > 100 µM
TGI [25]: > 100 µM
GI50 [26]: > 100 µM
TGI [26]: > 100 µM
GI50 [27]: > 100 µM
TGI [27]: > 100 µM
GI50 [28]: > 100 µM
TGI [28]: > 100 µM
GI50 [29]: > 100 µM
TGI [29]: > 100 µM
GI50 [30]: > 100 µM
TGI [30]: > 100 µM
GI50 [53]: > 100 µM
TGI [53]: > 100 µM
GI50 [31]: > 100 µM
TGI [31]: > 100 µM
GI50 [54]: > 100 µM
TGI [54]: > 100 µM
GI50 [32]: > 100 µM
TGI [32]: > 100 µM
GI50 [33]: > 100 µM
TGI [33]: > 100 µM
GI50 [34]: > 100 µM
TGI [34]: > 100 µM
GI50 [55]: > 100 µM
TGI [55]: > 100 µM
GI50 [35]: > 100 µM
TGI [35]: > 100 µM
GI50 [36]: > 100 µM
TGI [36]: > 100 µM
GI50 [37]: > 100 µM
TGI [37]: > 100 µM
GI50 [56]: > 100 µM
TGI [56]: > 100 µM
GI50 [57]: > 100 µM
TGI [57]: > 100 µM
